Here are results for 6 compounds from patent publication US8895583B2, “Soluble guanylate cyclase activators” (Merck Sharp & Dohme Corp., priority 2010, dated 2014).

In the test the target is T1, sGC α1/β1 heterodimer (Homo sapiens, UniProt Q02108+Q02153).
T1 construct: expressed in transfected cells
T1 sequence (Q02108 1-690 partner): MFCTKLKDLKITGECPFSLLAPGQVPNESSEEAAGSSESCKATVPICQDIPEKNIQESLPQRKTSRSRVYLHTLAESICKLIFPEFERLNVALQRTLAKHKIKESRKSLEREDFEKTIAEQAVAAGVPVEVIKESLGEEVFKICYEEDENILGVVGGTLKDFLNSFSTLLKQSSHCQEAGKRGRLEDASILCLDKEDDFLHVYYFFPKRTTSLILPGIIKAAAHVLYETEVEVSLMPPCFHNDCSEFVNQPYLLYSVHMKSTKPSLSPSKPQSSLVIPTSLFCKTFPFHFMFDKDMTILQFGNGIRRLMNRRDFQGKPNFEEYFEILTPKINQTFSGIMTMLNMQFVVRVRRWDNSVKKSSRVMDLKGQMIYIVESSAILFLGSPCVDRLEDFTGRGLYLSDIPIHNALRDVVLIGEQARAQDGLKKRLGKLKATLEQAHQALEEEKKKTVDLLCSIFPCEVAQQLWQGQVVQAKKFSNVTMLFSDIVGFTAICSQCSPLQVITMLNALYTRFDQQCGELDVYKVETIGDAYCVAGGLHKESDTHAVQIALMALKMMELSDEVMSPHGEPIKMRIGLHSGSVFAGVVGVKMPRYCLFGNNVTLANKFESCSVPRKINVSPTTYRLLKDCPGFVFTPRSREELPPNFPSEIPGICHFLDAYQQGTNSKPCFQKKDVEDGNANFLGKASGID
T1 sequence (Q02153 1-619): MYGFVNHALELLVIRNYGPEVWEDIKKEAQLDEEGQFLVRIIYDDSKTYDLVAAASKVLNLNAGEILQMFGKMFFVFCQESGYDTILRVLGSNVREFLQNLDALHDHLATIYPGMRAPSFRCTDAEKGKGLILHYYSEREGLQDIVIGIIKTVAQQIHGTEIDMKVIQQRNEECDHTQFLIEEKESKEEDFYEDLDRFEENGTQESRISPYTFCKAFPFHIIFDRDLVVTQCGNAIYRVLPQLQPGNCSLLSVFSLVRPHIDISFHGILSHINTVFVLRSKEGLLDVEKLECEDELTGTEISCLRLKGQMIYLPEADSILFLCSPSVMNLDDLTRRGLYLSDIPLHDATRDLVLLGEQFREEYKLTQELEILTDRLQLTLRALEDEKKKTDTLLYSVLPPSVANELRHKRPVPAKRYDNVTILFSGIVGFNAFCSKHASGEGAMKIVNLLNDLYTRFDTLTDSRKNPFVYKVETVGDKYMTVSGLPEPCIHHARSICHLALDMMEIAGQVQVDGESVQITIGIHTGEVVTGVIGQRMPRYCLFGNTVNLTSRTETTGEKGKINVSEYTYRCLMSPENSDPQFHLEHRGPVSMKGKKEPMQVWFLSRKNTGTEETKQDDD
Kind of test: Cell-based sGC Functional Assay (cGMP level by HTRF in CHO-K1/sGC cells). The note with it: with ODQ incubation (10 μM); for EC50: read-out: IP (nM) inflection point; for fold induction: read-out: maximum fold induction over DMSO control. An excerpt:
Cell-based sGC Functional Assay
A CHO-K1 cell line stably expressing the sGC α1/β1 heterodimer was generated using a standard transfection protocol. CHO-K1 cells were transfected with plasmids pIREShyghsGCα1 and pIRESneo-hsGCβ1 simultaneously using FUGENE reagent. Clones that stably express both subunits were selected with hygromycin and neomycin for ˜2 weeks. Clone #7 was chosen for the assay and was designated CHO-K1/sGC. CHO-K1/sGC cells were maintained in F-K12 medium containing 10% heat-inactivated Fetal Bovine Serum (FBS), 100 μg/mL penicillin/streptomycin, 0.5 mg/mL hygromycin and 0.25 mg/mL G418. On the day of the assay, cells were harvested in EBSS (Earle's balanced salt solution) Assay Buffer (EAB) containing 5 mM MgCl2, 10 mM HEPES (4-(2-hydroxyethyl)piperazine-1-ethanesulfonic acid) and 0.05% BSA (bovine serum albumin) and cell density was adjusted to 0.75−1.25×10^6 cells/ml with EAB. IBMX (3-isobutyl-1-methylxanthin, 0.5 mM) was added to inhibit degradation of cGMP. Compounds were diluted from DMSO stock solutions and added to the assay at a final DMSO concentration of 1%. Cells were incubated with compounds in the presence and absence of 10 μM of 1H-(1,2,4)oxadiazolo(4,3-a) quinoxalin-1-one (ODQ) for 1 hr at 37° C. At the end of the incubation period, the reaction was terminated and the cells were lysed. The level of intracellular cGMP was determined using an HTRF-based assay kit (CisBio, 62GM2PEC), which detects the displacement of a fluorescence labeled cGMP from its specific antibody. The amount of cGMP was plotted against compound concentration in PRISM software and the inflection point (IP) and maximum fold induction over DMSO control were derived from the plot.
(In TR-FRET formats the signal depends on donor and acceptor labels being close together.)

Consider `O=C(O)c1cnn(-c2cccc(-c3cc(Cl)ccc3-c3ccc(C4CCN(CC(F)(F)F)CC4)cc3)n2)c1C(F)(F)F` [Example 60, 1-(6-{4-chloro-4′-[1-(2,2,2-trifluoroethyl)piperidin-4-yl]biphenyl-2-yl}pyridin-2-yl)-5-(trifluoromethyl)-1H-pyrazole-4-carboxylic acid], for which the EC50 came out at 14.6 nM and the fold induction stood at 231.
For `O=C(O)c1cnn(-c2cccc(-c3cc(Cl)ccc3-c3ccc(N4CCN(CC(F)(F)F)CC4)cc3)n2)c1C(F)(F)F` [Example 175, 1-(6-{4-chloro-4′-[4-(2,2,2-trifluoroethyl)piperazin-1-yl]biphenyl-2-yl}pyridin-2-yl)-5-(trifluoromethyl)-1H-pyrazole-4-carboxylic acid], the EC50 came out at 9.8 nM and the fold induction worked out at 703.
For `COC(=O)N1CCC(c2ccc(-c3ccc(C(F)(F)F)cc3-c3cccc(-n4ncc(C(=O)O)c4C(F)(F)F)n3)cc2)CC1` [Example 127, 1-{6-[4′-[1-(methoxycarbonyl)piperidin-4-yl]-4-(trifluoromethyl)biphenyl-2-yl]pyridin-2-yl}-5-(trifluoromethyl)-1H-pyrazole-4-carboxylic acid], in that order: 15.8 nM and 119.
For `O=C(O)c1cnn(-c2cccc(-c3cc(F)ccc3-c3ccc(C4CCN(CCC(F)(F)F)CC4)cc3)n2)c1C(F)(F)F` [Example 136, 1-(6-{4-fluoro-4′-[1-(3,3,3-trifluoropropyl)piperidin-4-yl]biphenyl-2-yl}pyridin-2-yl)-5-(trifluoromethyl)-1H-pyrazole-4-carboxylic acid], the EC50 was 78.8 nM and the fold induction turned out to be 162.
As for `O=C(O)c1cnn(-c2cccc(-c3cc(C(F)(F)F)cnc3-c3ccc(C4CCN(CC(F)(F)F)CC4)cc3)n2)c1C(F)(F)F` [Example 61, 1-[2′-{4-[1-(2,2,2-trifluoroethyl)piperidin-4-yl]phenyl}-5′-(trifluoromethyl)-2,3′-bipyridin-6-yl]-5-(trifluoromethyl)-1H-pyrazole-4-carboxylic acid], the EC50 was determined as 16.3 nM and the fold induction is 248.
In the same order, the values of `O=C(O)c1cnn(-c2cccc(-c3cc(Cl)ccc3-c3ccc(C4CCN(C(=O)C5CC5)CC4)cc3)n2)c1C(F)(F)F` [Example 94, 1-(6-{4-chloro-4′-[1-(cyclopropylcarbonyl)piperidin-4-yl]biphenyl-2-yl}pyridin-2-yl)-5-(trifluoromethyl)-1H-pyrazole-4-carboxylic acid] are 30.2 nM and 281.
